# Test results as given in US8329745B2, “Small molecule inhibitors of ghrelin O-acyltransferase” (Board of Regents, The University of Texas System, priority 2008, dated 2012).
# Where a SMILES comes first, the peptide text is derived from it. [ ]: non-standard residue; d: D form. The star is where a group is joined. Octanoyl = CCCCCCCC(=O)*; Dap = NC[C@H](N)C(=O)O
# Assays:
# mouse GOAT = molecular target: T1, mouse GOAT (Mus musculus, UniProt P0C7A3); test: In vitro octanoylation assay: [3H]octanoyl transfer from octanoyl CoA to proghrelin-His8 by membranes of Sf9 cells expressing GOAT; assay type: biochemical; conditions: for inhibition of GOAT activity (qualitative): all concentrations tested / concentration not stated; for GOAT inhibitory activity compared with PH1147 / GOAT inhibitory activity/potency compared with BK1114: concentration not given; for GOAT inhibition in vitro compared with PH1147: 100 μM concentration; for dose response inhibition of GOAT activity in vitro / inhibition of GOAT activity at high concentration / IC50: Sf9 membranes; for dose response inhibition of GOAT activity in vitro: mouse His10-GOAT, 3% DMSO; for inhibition of GOAT activity at high concentration: 500 μM; for inhibition of GOAT activity at high concentration / IC50: mouse GOAT; for IC50: read-out: IC50 for GOAT inhibition in vitro
# T1 construct: made in house; host or cells: Sf9 insect cells (baculovirus); crude membrane fraction used
# T1 sequence (P0C7A3 1-435): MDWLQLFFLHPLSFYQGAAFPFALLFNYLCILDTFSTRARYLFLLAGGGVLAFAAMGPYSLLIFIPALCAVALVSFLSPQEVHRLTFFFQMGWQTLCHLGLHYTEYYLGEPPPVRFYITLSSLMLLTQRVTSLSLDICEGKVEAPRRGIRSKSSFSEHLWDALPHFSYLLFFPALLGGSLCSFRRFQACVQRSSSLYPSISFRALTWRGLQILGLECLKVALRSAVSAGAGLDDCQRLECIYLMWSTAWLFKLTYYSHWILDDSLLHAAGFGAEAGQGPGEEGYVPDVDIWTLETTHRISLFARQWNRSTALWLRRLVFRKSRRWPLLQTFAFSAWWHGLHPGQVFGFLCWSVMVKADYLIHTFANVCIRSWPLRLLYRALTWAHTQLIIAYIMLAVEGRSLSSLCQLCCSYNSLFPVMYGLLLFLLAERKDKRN
# Description: The assay we used is described in copending U.S. Ser No. 12/167,917, filed: Jul. 3, 2008. For baculoviral infection of insect cells, mouse GOAT cDNA was inserted into pFastBac HT-A (His10-tag) (Invitrogen), and baculovirus was generated. Sf9 insect cells were cultured, set up on day 0 at a density of 5×10^5 cells/ml, and infected on day 1 with baculovirus encoding His 10-GOAT at a density of 1×10^6 cells/ml. Cells were harvested 48 h post-infection and washed once with phosphate-buffered saline.
# Each pellet of Sf9 cells (obtained from 1 liter of cell culture) was disrupted with a Dounce homogenizer (40 strokes) on ice in 50 ml of buffer containing 50 mM Tris-Cl (pH 7.0), 150 mM NaCl, 1 mM sodium EDTA, 1 mM dithiothreitol, 100 μM bis(4-nitrophenyl) phosphate, 2.5 μg/ml aprotinin, 20 μg/ml phenylmethylsulfonyl fluoride, 10 μg/ml leupeptin, and 10 μg/ml pepstatin A. After an initial centrifugation at 3,000 g for 5 min at 4° C., the supernatant was further centrifuged at 100,000 g for 30 min at 4° C. to obtain a membrane fraction, which was stored at −80° C. until the time of assay. Just prior to assay, the membranes were suspended in 50 mM HEPES-NaOH (pH 7.0) and then passed through a 22-gauge needle 10 times. After centrifugation at 1,000 g for 1 min to remove aggregated materials, the supernatant (hereafter referred as membranes) was used for assays.
# Unless otherwise stated, the standard assay mixture contained 50 mM HEPES-NaOH (pH 7.0), 50 μM palmitoyl CoA or myristyl ether CoA, 50 μg membrane protein, 5 μg recombinant wild type or mutant versions of proghrelin-His8 and 1 μM [^3H]octanoyl CoA (11 dpm/fmol) in a final volume of 50 μl. […] The columns were washed at room temperature with 1 ml of buffer A followed by 3 ml of buffer A containing 25 mM imidazole. The His-tagged proghrelin was then eluted with 1 ml of buffer A containing 250 mM imidazole. Radioactivity present in the 250 mM-imidazole eluate was quantified by liquid scintillation counting.
# Compounds PH1147-1152 were screened for GOAT inhibition in vitro using membrane fractions prepared from Sf9 insect cells infected with baculovirus encoding mouse GOAT. The assay (described in U.S. Ser. No. 12/167,917) measures the extent of specific acyl transfer from tritiated octanoyl CoA to recombinant His-tagged proghrelin. […] PH1147 was the simplest molecule in the set and lacked motifs present in the more complex analogs intended to be Ser2 and/or Phe4 mimetics.
# (§1) Inhibition of GOAT activity by [Dap^3]octanoyl-ghrelin (1-5)-NH2 peptide and BK1114. Membranes from Sf9 cells infected with baculovirus encoding mouse His10-GOAT were prepared as previously described (Yang J, Zhao T J, Goldstein J L, Brown M S. 2008 PNAS, 105: 10750-10755). Each 50-μl reaction mixture contained 50 μg of membrane protein, 5 μg of proghrelin-His8, 50 μM palmitoyl CoA, 1 μM http[^3H]octanoyl CoA (11 dpm/fmol), and the experimental concentrations of peptide or compound in a final concentration of 3% (vol/vol) DMSO. Control values were established which represent the amount of [3H]octanoyl proghrelin formed in the absence of compound.
# as §1, with “the synthetic compounds, BK1114, BK1176, BK1177” for “[Dap^3]octanoyl-ghrelin (1-5)-NH2 peptide”, “BK1183.” for “BK1114.”, “et al., 2008, supra).” for “J, Zhao T J, Goldstein J L, Brown M S. 2008 PNAS, 105: 10750-10755).”, “[^3H]octanoyl” for “http[^3H]octanoyl”, “the” for “peptide or”
# GOAT = molecular target: T2, GOAT (Mus musculus, UniProt P0C7A3); test: Inhibition of GOAT activity in intact INS-1 cells co-expressing preproghrelin and GOAT (anti-ghrelin immunoblot); assay type: cell-based, Rat; conditions: 5 to 10 to 20 to 50 uM inhibitor, 24 h
# T2 construct: expressed in transfected cells; host or cells: rat INS-1 cells stably co-expressing preproghrelin (pCMV-preproghrelin) and GOAT-T7 (pEF-GOAT-T7)
# T2 sequence (P0C7A3 1-435): T1 sequence (P0C7A3 1-435)
# Description: A stably transfected INS-1 cell line co-expressing preproghrelin and GOAT was established as described below. On day 0, cells were set up at a density of 1.5×10^6/100-mm dish in medium A (RPMI-1640 medium supplemented with 10 mM HEPES, 50 μM β-mercaptoethanol, 100 U/ml penicillin, and 100 μg/ml streptomycin) containing 10% (v/v) FCS. On day 2, fresh medium was added. On day 4, the cells received a direct addition of the indicated concentration of BK1114 delivered in DMSO. The final concentration of DMSO in each dish was 0.5%. 24 h after treatment, two dishes of cells from each condition were harvested and pooled, after which peptides were extracted from the cells, fractioned on reverse-phase chromatography, and subjected to immunoblot analysis with a 1:1000 dilution of rabbit anti-ghrelin antibody as previously described (Yang J, Brown M S, Liang G, Grishin N V, Goldstein J L (2008) Identification of the acyltransferase that octanoylates ghrelin, an appetite-stimulating peptide hormone. Cell 132:387-39). Films were exposed for 1 min.
# Stably transfected cell line co-expressing preproghrelin and GOAT. Rat INS-1 cells were grown in monolayer at 37° C. in 8.8% CO2 as previously described (Id.). […] Expression of proghrelin and ghrelin was assessed by immunoblot analysis. […] Expression of GOAT-T7 was assessed by immunoblot analysis.
structure (smiles),measurement,setting,value
CCC(C)(O)/C=C/[C@H](NC(=O)OCc1ccccc1)C(=O)OC (stereo partly shown) [BK1095],inhibition of GOAT activity (qualitative),mouse GOAT,little inhibition
CCCCCCCC(O)/C=C/[C@H](NC(=O)C(F)(F)F)C(=O)OC (stereo partly shown) [BK1112],GOAT inhibitory activity compared with PH1147,mouse GOAT,not helpful
CCCCCCCC(C)(O)/C=C/C(NC(=O)OCc1ccccc1)C(=O)OC (stereo not shown) [BK1114],GOAT inhibition in vitro compared with PH1147,mouse GOAT,roughly twice as efficacious as PH1147
same,dose response inhibition of GOAT activity in vitro,mouse GOAT,dose response inhibition
same,dose response inhibition of GOAT activity in intact cells,GOAT,dose inhibition response
CCCCCCCC(C)(O)/C=C/[C@H](NC(=O)OCc1ccccc1)C(=O)N[C@@H](Cc1ccccc1)C(=O)N[C@@H](CC(C)C)C(N)=O (stereo partly shown) [BK1129],GOAT inhibitory activity/potency compared with BK1114,mouse GOAT,Neither was as effective as BK1114
CCCCCCCC(C)(O)/C=C/[C@H](NC(=O)C(C)(C)CO)C(=O)OC (stereo partly shown) [BK1137],inhibition of GOAT activity (qualitative),mouse GOAT,essentially inactive
CCCCCCCC(C)(O)/C=C/[C@H](NC(=O)C(C)(C)CO)C(=O)N[C@@H](Cc1ccccc1)C(=O)N[C@@H](CC(C)C)C(N)=O (stereo partly shown) [BK1141],inhibition of GOAT activity (qualitative),mouse GOAT,retains some activity
CCCCCCCC(C)(O)/C=C/[C@@H](NC(=O)OCc1ccccc1)C(=O)OC (stereo partly shown) [BK1149],GOAT inhibitory activity/potency compared with BK1114,mouse GOAT,comparable to BK1114
CCCCCCCC(O)(/C=C/[C@H](NC(=O)OCc1ccccc1)C(=O)OC)CCC (stereo partly shown) [BK1165],GOAT inhibitory activity/potency compared with BK1114,mouse GOAT,without compromising activity
CCCCCCCC(=O)NC[C@H](NC(=O)OCc1ccccc1)C(=O)OC [LN1111622],GOAT inhibitory activity/potency compared with BK1114,mouse GOAT,does not perform as well as BK1114
CCCCCCCC(O)/C=C/[C@H](NC(=O)OCc1ccccc1)C(=O)OC (stereo partly shown) [PH1147],inhibition of GOAT activity at high concentration,mouse GOAT,greatest inhibition
same,IC50,mouse GOAT,~90 µM
CCCCCCCC(O)CC[C@H](NC(=O)CC(C)(C)O)C(=O)OC (stereo partly shown) [PH1149],inhibition of GOAT activity at high concentration,mouse GOAT,inhibited GOAT activity
CCCCCCCC(O)CC[C@H](NC(=O)C(C)(C)CO)C(=O)OC (stereo partly shown) [PH1150],inhibition of GOAT activity at high concentration,mouse GOAT,inhibited GOAT activity
CCCCCCCC(=O)CC[C@H](NC(=O)OCc1ccccc1)C(=O)OC [PH1154a],GOAT inhibition in vitro compared with PH1147,mouse GOAT,comparably to PH1147
same,GOAT inhibition at higher concentrations,"mouse GOAT; concentrations higher than 100 μM, compared with PH1147",performed more poorly
CCCCCCCC(O)CC[C@@H](CO)NC(=O)[C@H](C)NC(=O)CNC (stereo partly shown) [PH1167],GOAT inhibitory activity compared with PH1147,mouse GOAT,neither PH1159 nor PH1167 possessed activity comparable to PH1147
CCCCCCCC(C)(O)/C=C/[C@H](NC(=O)OCc1ccccc1)C(=O)NC(C)C (stereo partly shown) [PH1176a],GOAT inhibitory activity/potency compared with BK1114,mouse GOAT,do not improve activity
CCCCCCCC(C)(O)C/C=C(/NC(=O)OCc1ccccc1)C(=O)NC(C)C (stereo not shown) [PH1176b],GOAT inhibitory activity/potency compared with BK1114,mouse GOAT,do not improve activity
"CCCCCCCC(=O)NC[C@H](NC(=O)[C@H](CO)NC(=O)CN)C(=O)N[C@@H](Cc1ccccc1)C(=O)N[C@@H](CC(C)C)C(N)=O [Structure 2, [Dap^3]octanoyl-ghrelin (1-5)-NH2, reference compound] (H-GS[Dap](Octanoyl)FL-NH2)",IC50,mouse GOAT,~1.5 µM
same,dose response inhibition of GOAT activity in vitro,mouse GOAT,dose response inhibition
